Experimental data from the supplement of paper PMC10307832.

Key:
Experiment in all cases: relative viability (nuclei count vs DMSO), 5 days (fraction); higher = more cells survive
[1] = compound: C1=CC2=C(C=C(C(=C2N=C1)O)N=NC3=CC4=C(C=C3)C=C(C=C4)S(=O)(=O)O)S(=O)(=O)O + CC(C)C[C@H](NC(=O)[C@H](Cc1ccccc1)NC(=O)c1cnccn1)B(O)O [Bortezomib] (partner 0.002 µM)
Outline: (§1)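 Nuclei were stained with Hoechst during a one-step fixation (final 0.05% Triton X-100, 1% formaldehyde, 1 ug/ml Hoechst) carried out 5 days after dosing, then counted on 4× images. The cells, lung cancer lines in 1536-well plates, had been dosed by pin tool the day after seeding with one drug alone or a fixed anchor-drug dose plus five library-drug doses (not always all listed) in √10 steps. Relative viability is the nuclei count in treated wells divided by that in vehicle wells, and each value is the median of duplicate plates.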

AT-7519 + Tozasertib = compound: O=C(NC1CCNCC1)c1n[nH]cc1NC(=O)c1c(Cl)cccc1Cl [AT-7519] + Cc1cc(Nc2cc(N3CCN(C)CC3)nc(Sc3ccc(NC(=O)C4CC4)cc3)n2)n[nH]1 [Tozasertib] (partner 0.1 µM)
Outline: as §1

[2] = compound: C1=CC2=C(C=C(C(=C2N=C1)O)N=NC3=CC4=C(C=C3)C=C(C=C4)S(=O)(=O)O)S(=O)(=O)O + CCNC(=O)c1noc(-c2cc(C(C)C)c(O)cc2O)c1-c1ccc(CN2CCOCC2)cc1 [Luminespib] (partner 0.01 µM)
Outline: as §1

[3] = compound: C1=CC2=C(C=C(C(=C2N=C1)O)N=NC3=CC4=C(C=C3)C=C(C=C4)S(=O)(=O)O)S(=O)(=O)O + Nc1nc2[nH]cc(CCc3ccc(C(=O)N[C@@H](CCC(=O)O)C(=O)O)cc3)c2c(=O)[nH]1 [Pemetrexed] (partner 0.2 µM)
Outline: as §1

UMC-11
relative viability ([1]; first compound 0.08 µM): 0.84
relative viability ([1]; first compound 0.253 µM): 0.783
relative viability ([1]; first compound 0.8 µM): 0.708
relative viability ([1]; first compound 2.53 µM): 0.633
relative viability ([1]; first compound 8 µM): 0.606
relative viability (AT-7519 + Tozasertib; first compound 0.01 µM): 0.223
relative viability (AT-7519 + Tozasertib; first compound 0.03162 µM): 0.211
relative viability (AT-7519 + Tozasertib; first compound 0.3162 µM): 0.278
relative viability (AT-7519 + Tozasertib; first compound 1 µM): 0.219
relative viability ([2]; first compound 0.08 µM): 1.14
relative viability ([2]; first compound 0.253 µM): 1.04
relative viability ([2]; first compound 0.8 µM): 0.862
relative viability ([2]; first compound 2.53 µM): 0.992
relative viability ([2]; first compound 8 µM): 1.02
relative viability ([3]; first compound 0.08 µM): 0.754
relative viability ([3]; first compound 0.253 µM): 0.853
relative viability ([3]; first compound 0.8 µM): 0.783
relative viability ([3]; first compound 2.53 µM): 0.717
relative viability ([3]; first compound 8 µM): 0.768
